Literature values as cited in publication PMC8704606, “The Artemiside-Artemisox-Artemisone-M1 Tetrad: Efficacies against Blood Stage P. falciparum Parasites, DMPK Properties, and the Case for Artemiside” (Pharmaceutics, 2021).

How the values were obtained:
[1] = test system: asexual blood stages of Pf NF54 (drug sensitive); design: method as in PMID 29866868, PMID 31998692; settings: asexual blood stage Pf NF54, CQ sensitive; SYBR Green I; ± SEM; cited from earlier work
[2] = test system: asexual blood stages of Pf K1 (drug resistant); design: method as in PMID 29866868, PMID 31998692; settings: asexual blood stage Pf K1, multidrug resistant; SYBR Green I; ± SEM; cited from earlier work
[3] = test system: asexual blood stages of Pf W2 (drug resistant); design: method as in PMID 29866868, PMID 31998692; settings: asexual blood stage Pf W2, multidrug resistant; SYBR Green I; ± SEM; cited from earlier work
[4] = test system: early-stage (EG) Pf NF54 gametocytes; design: method as in PMID 29866868; settings: early-stage gametocytes >95% stages II-III; 48 h incubation; ± SEM; cited from earlier work
[5] = test system: late-stage (LG) Pf NF54 gametocytes; design: method as in PMID 29866868; settings: late-stage gametocytes >90% stages IV-V; 48 h incubation; ± SEM; cited from earlier work
[6] = single dose 10 mg/kg, healthy Aotus monkeys; cited from earlier work
[7] = test system: W2 (CQ resistant); design: method as in ref S2; settings: [3H]-hypoxanthine assay; ref S2; read-out: Antimalarial activities IC50 W2; cited from earlier work
[8] = test system: 7G8 (CQ resistant); design: method as in ref S2; settings: [3H]-hypoxanthine assay; ref S2; read-out: Antimalarial activities IC50 7G8; cited from earlier work
[9] = test system: TM93-C1088 (atovaquone and CQ resistant); design: method as in ref S2; settings: [3H]-hypoxanthine assay; ref S2; read-out: Antimalarial activities IC50 TM93-C1088; cited from earlier work
[10] = test system: TM91-C235 (CQ and MFQ resistant); design: method as in ref S2; settings: [3H]-hypoxanthine assay; ref S2; read-out: Antimalarial activities IC50 TM91-C235; cited from earlier work
[11] = test system: TM-C2B; design: method as in ref S2; settings: [3H]-hypoxanthine assay; ref S2; read-out: Antimalarial activities IC50 TM-C2B; cited from earlier work
[12] = test system: CQ-sensitive P. berghei N strain; settings: Peters four-day test, mice, ref S4 (24), cited from earlier work
[13] = test system: CQ-resistant P. yoelii NS strain; settings: Peters four-day test, mice, subcutaneous; ref S4 (24); cited from earlier work
[14] = test system: Toxoplasma gondii (Tg); design: method as in PMID 19635951; settings: read-out: EC50 against Tg in vitro; cited from earlier work
[15] = test system: fetal rat brain stem cells; settings: cited from earlier work

SMILES: C[C@H]1[C@H](OC(=O)CCC(=O)O)O[C@@H]2O[C@@]3(C)CC[C@H]4[C@H](C)CC[C@@H]1[C@@]24OO3 [Artesunate 4, Artesunate]
- IC50 [1]: 3 ± 0.29 nM
- IC50 [2]: 4 ± 1 nM
- IC50 [3]: 2.4 ± 0.4 nM
- IC50 [4]: 62.8 ± 3 nM
- IC50 [5]: 259 ± 80 nM
- ex vivo antimalarial activity observable up to (post dose) [6]: up to 1 h
- IC50 [7]: 3 ± 1.6 nM
- IC50 [8]: 1.5 ± 0.2 nM
- IC50 [9]: 1.4 ± 0.1 nM
- IC50 [10]: 2.9 ± 1.4 nM
- IC50 [11]: 2.5 ± 0.5 nM
- P. berghei ED90 po ([12]; oral daily day 0-3): 7.1 mg/kg
- P. berghei ED90 sc ([12]; subcutaneous daily day 0-3): 7.2 mg/kg
- P. yoelii ED90 sc [13]: 22.0 mg/kg
- EC50 [14]: 213 nM
- Viability NOEC [15]: 0.1 µg/mL
- Neurofilaments IC50 ([15]; effect on the cytoskeleton on day 7, ref S4 (24)): 5.0 µg/mL
